“Also recorded” adds a separate entry of the source.
Columns and labels:
Format in all cases: biochemical
Set-up in all cases: purchased NEB (New England Biolabs), Ipswich, Mass. #M0202
[1] = molecular target: T1, T4 DNA ligase (Enterobacteria phage T4, UniProt P00970); assay: Transformants after ligation of AhdI-linearized pUC19 in T4 DNA ligase buffer vs Quick Ligase buffer containing PEG 6000; conditions: 1,2-PrD in regular ligase buffer, chemically competent cells
T1 sequence (P00970 1-487): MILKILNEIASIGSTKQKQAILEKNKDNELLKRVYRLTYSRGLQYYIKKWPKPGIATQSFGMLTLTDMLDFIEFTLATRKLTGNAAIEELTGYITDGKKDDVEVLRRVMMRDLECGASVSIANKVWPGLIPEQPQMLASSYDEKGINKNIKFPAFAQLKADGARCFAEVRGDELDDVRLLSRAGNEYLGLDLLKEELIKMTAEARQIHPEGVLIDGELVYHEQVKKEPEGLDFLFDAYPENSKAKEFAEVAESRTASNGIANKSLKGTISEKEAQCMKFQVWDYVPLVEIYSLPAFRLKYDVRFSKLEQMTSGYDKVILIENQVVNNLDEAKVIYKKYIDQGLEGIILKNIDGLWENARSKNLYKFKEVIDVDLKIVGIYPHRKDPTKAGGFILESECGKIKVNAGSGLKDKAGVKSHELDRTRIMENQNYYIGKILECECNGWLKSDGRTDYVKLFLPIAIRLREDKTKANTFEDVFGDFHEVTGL
Protocol: The Y-axis is transformants per 10 pg DNA (transformations w/chemically competent cells.) The X-axis is regular ligase buffer (RLB) with the percentage of added 1,2-PrD given in parentheses. The quick ligase buffer (QLB) has PEG in it to enhance ligation.
(§1) The reaction mixtures contained DNA at 50-100 ng and 1,2-PrD at different concentrations. 1 μl of regular concentration (NEB, Ipswich, Mass., #M0202; 400 units) or 1 μl of high concentration T4 DNA ligase (NEB, Ipswich, Mass., #M0202; 2000 units) was then added to a final volume of 21 μl in 1×T4 DNA Ligase Buffer (NEB, Ipwich, Mass., #B0202) or 1× Quick Ligase™ Buffer (NEB, Ipswich, Mass., #B2200).
For chemically competent cell transformations, the cell-DNA mixture was incubated on ice for 30 min, heat-shocked at 42° C. for 30 sec, then returned to ice for 5 min. […] Plates were inverted and incubated for 16 hrs at 37° C., followed by quantification of total colony numbers.
Ligations were performed in both buffers using 50 ng of AhdI-linearized pUC19 double-stranded DNA (containing single-base overhangs) following the conditions described in Example 1. A total of 10 pg DNA (40 μl of a 1:20 dilution of the SOC outgrowth) was used per plate and transformants were counted after 16 hrs at 37° C.

[2] = molecular target: T1, T4 DNA ligase; assay: Ligation efficiency assay (standard assay, various ligases and buffers); conditions: 1%-12% 1,2-PrD; various concentrations and types of DNA ligase, regular and Quick Ligase buffers
Protocol: as §1
A standard assay uses 100 ng DNA, 1 μl of T4 DNA ligase, 21 μl 1×T4 DNA ligase buffer and varying amounts of enhancer.
Ligation reactions were incubated for 10 min at room temperature (25° C.) unless otherwise stated, then placed on ice for 2 min. In some experiments the ligase was heat-killed by incubation at 65° C. for 20 min. The ligation reactions were analyzed by 1% agarose gel electrophoresis to identify DNA species and determine the efficiency of […].

[3] = molecular target: T1, T4 DNA ligase; assay: Ligation of one, two or three pUC19 fragments with single-base overhangs, transformation and gel analysis; conditions: for Ligation/Subsequent Transformation Enhancement: 12% 1,2-PrD vs none; for Transformation Efficiency +1,2-PrD / Resultant Colonies +1,2-PrD: 12% 1,2-PrD; for Resultant Colonies +1,2-PrD: 20 pg DNA plated
Protocol: FIGS. 4A-C show agarose gel electrophoresis analysis of ligation products achieved using +/−12% 1,2-PrD for one, two and three pUC19 fragment sets as described in FIGS. 3A-C. The marker lane indicated by M corresponds to 1 μg of a 2-log DNA ladder, New England Biolabs, Inc. (NEB), Ipswich, Mass., #3200. (1) is a 2686-bp linear AhdI-pUC19 fragment; (2) are 1527-bp and 1159-bp BciVI fragments; (3) are 2 lengths (2275-bp and 287-bp) of 3 BccI fragments where the third 124-bp fragment is not visible on the gel; (4) is a linearized intermediate ligation product formed by 2275-bp and 287-bp BccI fragments; (5) is the desired ligated/circularized plasmid which is a highly transformable desired product; and (6) are different kinds of linear and circular undesired concatameric ligation products which are not highly transformable.
For chemically competent cell transformations, the cell-DNA mixture was incubated on ice for 30 min, heat-shocked at 42° C. for 30 sec, then returned to ice for 5 min. A volume of 950 μl SOC medium (2% vegetable peptone or Tryptone, 0.5% yeast extract, 10 mM NaCl, 2.5 mM KCl, 10 mM MgCl2, 10 mM MgSO4 and 20 mM glucose) was added to the cell-DNA mixture, followed by a one hr 37° C. outgrowth period with agitation. A volume of 25-50 μl of appropriately diluted cells in SOC was spread onto Rich Agar plates (composition per liter: 10 g soy peptone, 5 g yeast extract, 10 g NaCl, 1 g MgCl2-6H2O, 1 g dextrose, 15 grams agar) supplemented with 100 μg/ml ampicillin. Plates were inverted and incubated for 16 hrs at 37° C., followed by quantification of total colony numbers.
Single fragment ligation (recircularization), two fragment ligation (cloning) and three fragment ligation (assembly) reactions were performed in the presence of 1,2-PrD (see FIGS. 3A-C). Restriction digests of pUC19 plasmid constructs were performed to completion by monitoring the reactions using 1% agarose gel electrophoresis. Upon completion all restriction enzymes were heat-inactivated by incubating the reaction for 20 min at 65° C. The DNA was purified by use of QiaQuick® (Qiagen, Valencia, Calif.) spin columns and quantified by comparison to known DNA standards by 1% agarose gel electrophoresis. […] Ligation reactions were performed as described in FIGS. 3A-C using 100 ng of DNA that had been restricted by AhdI, BciVI or BccI to leave a variety of single-base overhangs. From each 21 μl ligation reaction, 2 μl was used for transformation as analyzed in Table 4 and 19 μl was run on a 1% agarose gel prepared with tris-borate as described in FIGS. 4A-C. […] This is the highly transformable DNA circularized form.
The ligations took place with and without 12% 1,2-PrD present for 10 min at room temperature (25° C.) with 2000 units T4 DNA ligase. A volume of 2 μl from each ligation reaction was transformed into chemically competent DH5 alpha cells as described in Example 1. A volume of 40 μl of a 1:20 dilution of the outgrowth in SOC medium was plated on medium Rich Agar plates supplemented with ampicillin. This volume corresponded to 20 pg of DNA from the original ligation reaction.

[4] = 1 fragment (AhdI-linearized pUC19)

SMILES: CC(O)CO (stereo not drawn) [1,2-PrD, 1,2-propanediol]
- Transformants per 10 pg DNA compared with PEG-containing Quick Ligase buffer [1]: enhanced DNA ligation at least as much as PEG containing Quick Ligase; also recorded: achieved the level of transformation expected or greater than in PEG-containing (quick ligase) buffers
- Enhancement of ligation [2]: consistent enhancement of ligation
- Ligation/Subsequent Transformation Enhancement [3, 4]: 12-fold
- Ligation/Subsequent Transformation Enhancement ([3]; 2 fragments (BciVI-pUC19)): At least 35-fold
- Ligation/Subsequent Transformation Enhancement ([3]; 3 fragments (BccI-pUC19)): 18-fold
- Transformation Efficiency +1,2-PrD [3, 4]: 51.4 × 10e^6/μg DNA
- Resultant Colonies +1,2-PrD ([3]; 1 fragment (AhdI-linearized pUC19), 2000 units T4 DNA ligase, 10 min 25 C): 1027
- Transformation Efficiency +1,2-PrD ([3]; 2 fragments (BciVI-pUC19)): 1.8 × 10e^6/μg DNA
- Resultant Colonies +1,2-PrD ([3]; 2 fragments (BciVI-pUC19)): 35
- Transformation Efficiency +1,2-PrD ([3]; 3 fragments (BccI-pUC19)): 1.85 × 10e^6/μg DNA
- Resultant Colonies +1,2-PrD ([3]; 3 fragments (BccI-pUC19)): 37
- Amount of ligated circularized plasmid on agarose gel ([3]; +/-12% 1,2-PrD, one, two and three pUC19 fragment sets (FIGS. 4A-C)): significant beneficial effect on the amount of ligated circularized plasmid
